Measured values: US9447091B2, “Protein kinase inhibitors” (Orion Corporation, priority 2011, dated 2016)

Assays:
c-Met kinase = c-Met kinase (Homo sapiens (Human), UniProt P08581); experiment: c-Met TR-FRET kinase assay; format: biochemical; conditions: 1000 nM compound
Experimental: Compounds were screened in the TR-FRET assay with c-Met kinase. 0.1 ng of c-Met [expressed in-house] kinase was used for assay. The compound was incubated with the kinase for 60 min at RT. After the incubation, substrate mix [40 nM Ultra light poly GT (Perkin Elmer, USA) and 10 μM ATP (Sigma)] was added. The above reaction was stopped by the addition of 40 mM EDTA after the 30 min kinase reaction. The Eu-labelled antiphospho-tyrosine antibody [Perkin Elmer, USA] was added at 0.5 nM and the fluorescence emission at 615 nm/665 nm [excitation at 340 nm] was measured. The compounds were initially screened at 100 nM and 1 μM concentrations. The compounds with >50% inhibition at 100 nM of c-Met were taken for the full dose response studies. The final DMSO concentration in the assay was 1%. For IC50 determination, ⅓rd serial dilution was made from the 20 mM DMSO stock solution. 2 μl of these were transferred to the test wells containing 20 μl reaction mixture [total reaction volume 20 μl]. The fluorescence was measured in Perkin Elmer Wallac 1420 Multilabel Counter Victor 3. The IC50 was determined by fitting the dose response data to sigmoidal curve fitting equation using GraphPad Prism software V5.

FGFR1 kinase = FGFR1 kinase (Homo sapiens (Human), UniProt P11362); experiment: FGFR1 TR-FRET kinase assay; format: biochemical; conditions: for IC50: 13 μM ATP, read-out: IC50 of FGFR1 inhibition
FGFR1 kinase, sequence (P11362 22-822): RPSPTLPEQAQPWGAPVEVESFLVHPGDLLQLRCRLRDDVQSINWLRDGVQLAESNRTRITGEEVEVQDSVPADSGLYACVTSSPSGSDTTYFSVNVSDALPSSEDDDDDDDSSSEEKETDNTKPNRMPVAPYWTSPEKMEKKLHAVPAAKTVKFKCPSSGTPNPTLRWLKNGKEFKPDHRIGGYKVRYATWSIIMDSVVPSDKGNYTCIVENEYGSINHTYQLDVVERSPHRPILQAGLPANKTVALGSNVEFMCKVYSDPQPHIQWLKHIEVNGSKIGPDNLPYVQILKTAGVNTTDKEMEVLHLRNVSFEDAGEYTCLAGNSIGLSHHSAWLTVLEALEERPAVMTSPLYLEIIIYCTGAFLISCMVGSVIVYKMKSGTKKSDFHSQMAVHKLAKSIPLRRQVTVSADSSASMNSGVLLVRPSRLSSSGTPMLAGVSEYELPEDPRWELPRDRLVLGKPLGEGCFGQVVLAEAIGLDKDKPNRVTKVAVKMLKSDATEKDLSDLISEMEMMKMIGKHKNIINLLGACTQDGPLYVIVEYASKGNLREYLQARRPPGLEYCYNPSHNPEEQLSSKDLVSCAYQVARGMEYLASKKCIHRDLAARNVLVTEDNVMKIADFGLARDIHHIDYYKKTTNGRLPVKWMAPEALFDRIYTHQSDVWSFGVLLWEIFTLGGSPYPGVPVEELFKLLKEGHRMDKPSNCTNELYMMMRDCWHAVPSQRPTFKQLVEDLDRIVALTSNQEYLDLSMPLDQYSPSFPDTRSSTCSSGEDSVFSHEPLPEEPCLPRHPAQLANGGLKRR
Experimental: Compounds were screened in the TR-FRET assay with FGFR1 kinase. 5 ng of FGFR1 [Upstate, USA] kinase was used for assay. The compound was incubated with the kinase for 30 minutes at RT. After the incubation, substrate mix [40 nM Ultra light poly GT (Perkin Elmer, USA) and 13 μM ATP (Sigma)] was added. The above reaction was stopped by the addition of 40 mM EDTA after the […] kinase reaction. The Eu-labelled antiphospho-tyrosine antibody [Perkin Elmer, USA] was added at 0.5 nM and the fluorescence emission at 615 nm/665 nm [excitation at 340 nm] was measured. The compounds were initially screened at 100 nM and 1 μM concentrations. The compounds with >50% inhibition at 100 nM of FGFR1 were taken for the full dose response studies. The final DMSO concentration in the assay was 1%. For IC50 determination, ⅓^rd serial dilution was made from the 20 mM DMSO stock solution. 2 μl of these were transferred to the test wells containing 20 μl of the reaction mixture [total reaction volume 20 μl]. The fluorescence was measured in Perkin Elmer Wallac 1420 Multilabel Counter Victor 3. The IC50 was determined by fitting the dose response data to sigmoidal curve fitting equation using GraphPad Prism software V5.

c-Met kinase, sequence (P08581 25-1390): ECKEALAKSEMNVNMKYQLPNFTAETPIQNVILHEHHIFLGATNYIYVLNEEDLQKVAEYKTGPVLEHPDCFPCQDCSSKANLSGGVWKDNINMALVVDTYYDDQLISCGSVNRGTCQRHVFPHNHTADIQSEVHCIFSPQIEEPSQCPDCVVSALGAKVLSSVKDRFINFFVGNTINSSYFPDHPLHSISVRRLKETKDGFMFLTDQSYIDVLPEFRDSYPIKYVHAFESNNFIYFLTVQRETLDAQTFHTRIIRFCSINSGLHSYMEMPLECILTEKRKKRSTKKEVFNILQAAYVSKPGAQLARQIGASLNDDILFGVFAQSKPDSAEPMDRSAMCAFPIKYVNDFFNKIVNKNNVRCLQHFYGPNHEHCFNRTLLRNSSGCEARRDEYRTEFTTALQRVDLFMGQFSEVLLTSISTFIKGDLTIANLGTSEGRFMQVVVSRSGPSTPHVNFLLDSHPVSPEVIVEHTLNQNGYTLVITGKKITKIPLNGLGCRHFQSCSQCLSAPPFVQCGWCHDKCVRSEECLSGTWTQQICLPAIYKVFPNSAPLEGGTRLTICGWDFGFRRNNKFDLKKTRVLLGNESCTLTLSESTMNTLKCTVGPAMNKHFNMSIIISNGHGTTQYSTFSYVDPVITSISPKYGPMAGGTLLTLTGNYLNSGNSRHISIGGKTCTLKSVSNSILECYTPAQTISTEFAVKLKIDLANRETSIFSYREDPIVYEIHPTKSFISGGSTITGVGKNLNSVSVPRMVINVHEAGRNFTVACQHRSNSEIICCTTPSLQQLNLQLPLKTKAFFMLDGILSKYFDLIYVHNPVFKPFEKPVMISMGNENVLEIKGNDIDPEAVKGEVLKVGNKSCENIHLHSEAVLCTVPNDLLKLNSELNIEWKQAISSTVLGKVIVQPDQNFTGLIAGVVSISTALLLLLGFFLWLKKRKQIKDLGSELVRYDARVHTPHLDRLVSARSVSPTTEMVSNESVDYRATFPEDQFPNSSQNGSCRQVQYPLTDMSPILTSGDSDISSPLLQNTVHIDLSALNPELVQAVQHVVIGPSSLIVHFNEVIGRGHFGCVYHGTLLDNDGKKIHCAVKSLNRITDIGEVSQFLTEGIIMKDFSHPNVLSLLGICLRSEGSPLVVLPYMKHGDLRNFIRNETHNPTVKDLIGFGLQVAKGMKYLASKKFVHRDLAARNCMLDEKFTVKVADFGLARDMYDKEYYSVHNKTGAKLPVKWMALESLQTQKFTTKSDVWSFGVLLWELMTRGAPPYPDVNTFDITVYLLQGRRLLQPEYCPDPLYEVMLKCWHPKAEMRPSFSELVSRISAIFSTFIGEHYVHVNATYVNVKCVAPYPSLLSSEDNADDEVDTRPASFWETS

SMILES | inhibition at 1 µM (c-Met kinase) [%] | inhibition at 1 µM (FGFR1 kinase; 1000 nM compound) [%] | IC50 (FGFR1 kinase) [µM] | Inhibition (%) of FGFR1 at 1000 nM (FGFR1 kinase; 1000 nM compound) [%]
Cn1cc(-c2ccc3c(c2)ncn3-c2cc(NS(=O)(=O)C3CC3)cc(-c3ccc(F)cc3F)c2)cn1 [Example 5, N-(2′,4′-difluoro-5-(5-(1-methyl-1H-pyrazol-4-yl)-1H-benzo[d]imidazol-1-yl)-biphenyl-3-yl)cyclopropanesulfonamide] | 7 | 95 | 0.012 | –
CC(=O)Nc1cc(-c2ccc(F)cc2F)cc(-n2cnc3cc(-c4cnco4)ccc32)c1 [Example 22, N-(2′,4′-difluoro-5-(5-(oxazol-5-yl)-1H-benzo[d]imidazol-1-yl)biphenyl-3-yl)-acetamide] | 5 | 99 | 0.0038 | –
CC(C)S(=O)(=O)Nc1cc(-c2ccc(F)cc2F)cc(-n2cnc3cc(-c4cnco4)ccc32)c1 [Example 25, N-(2′,4′-difluoro-5-(5-(oxazol-5-yl)-1H-benzo[d]imidazol-1-yl)biphenyl-3-yl)-propane-2-sulfonamide] | 12 | 93 | 0.034 | –
O=S(=O)(Nc1cc(-c2ccc(F)cc2F)cc(-n2cnc3cc(-c4cnco4)ccc32)c1)c1ccccc1 [Example 26, N-(2′,4′-difluoro-5-(5-(oxazol-5-yl)-1H-benzo[d]imidazol-1-yl)biphenyl-3-yl)-benzenesulfonamide] | 2 | 93 | 0.021 | –
CCS(=O)(=O)Nc1cc(-c2ccc(F)cc2F)cc(-n2cnc3cc(-n4cccn4)ccc32)c1 [Example 30, N-(5-(5-(1H-pyrazol-1-yl)-1H-benzo[d]imidazol-1-yl)-2′,4′-difluorobiphenyl-3-yl)ethanesulfonamide] | 1 | 94 | 0.016 | –
O=C(Nc1cc(-c2ccc(F)cc2F)cc(-n2cnc3cc(-n4cccn4)ccc32)c1)NC1CCCC1 [Example 38, 1-(5-(5-(1H-pyrazol-1-yl)-1H-benzo[d]imidazol-1-yl)-2′,4′-difluorobiphenyl-3-yl)-3-cyclopentylurea] | 0 | 88 | 0.033 | –
CC(C)(O)CCn1cc(-c2ccc3c(c2)ncn3-c2cc(NS(=O)(=O)C3CC3)cc(-c3ccc(F)cc3F)c2)nn1 [Example 47, N-(2′,4′-difluoro-5-(5-(1-(3-hydroxy-3-methylbutyl)-1H-1,2,3-triazol-4-yl)-1H-benzo[d]imidazol-1-yl)biphenyl-3-yl)cyclopropanesulfonamide] | 10 | 99 | 0.007 | –
CC(=O)Nc1cc(-c2ccc(F)cc2F)cc(-n2cnc3cc(C4=NCCN4)ccc32)c1 [Example 169, N-(5-(5-(4,5-dihydro-1H-imidazol-2-yl)-1H-benzo[d]imidazol-1-yl)-2′,4′-difluoro-[1,1′-biphenyl]-3-yl)acetamide] | – | 89 | 0.094 | –
CC(=O)Nc1cc(-c2ccc(F)cc2)cc(-n2cnc3cc(-c4ccc(F)nc4)ccc32)c1 [Example 170, N-(4′-fluoro-5-(5-(6-fluoropyridin-3-yl)-1H-benzo[d]imidazol-1-yl)-[1,1′-biphenyl]-3-yl)acetamide] | – | 92 | 0.059 | –
CC(=O)Nc1cc(-c2ccc(F)cc2F)cc(-n2cnc3cc(-c4ccc(F)nc4)cnc32)c1 [Example 178, N-(2′,4′-difluoro-5-(6-(6-fluoropyridin-3-yl)-3H-imidazo[4,5-b]pyridin-3-yl)-[1,1′-biphenyl]-3-yl)acetamide] | – | 86 | 0.0149 | –
COc1ccc(-c2cc(NC(C)=O)cc(-n3cnc4cc(-c5cnn(C)c5)ccc43)c2)c(F)c1 [Example 190, N-(2′-fluoro-4′-methoxy-5-(5-(1-methyl-1H-pyrazol-4-yl)-1H-benzo[d]imidazol-1-yl)-[1,1′-biphenyl]-3-yl)acetamide] | – | 96 | 0.0043 | –
CC(C)n1cc(-c2ccc3c(c2)ncn3-c2cc(NS(=O)(=O)C3CC3)cc(-c3ccc(F)cc3F)c2)cn1 [Example 204, N-(2′,4′-difluoro-5-(5-(1-isopropyl-1H-pyrazol-4-yl)-1H-benzo[d]imidazol-1-yl)-[1,1′-biphenyl]-3-yl)cyclopropanesulfonamide] | – | 98 | 0.02 | –
CNS(=O)(=O)N(C)c1cc(-c2ccc(F)cc2F)cc(-n2cnc3cc(-c4cnn(C(C)C)c4)cnc32)c1 [Example 217, N-(2′,4′-difluoro-5-(6-(1-isopropyl-1H-pyrazol-4-yl)-3H-imidazo[4,5-b]pyridin-3-yl)-[1,1′-biphenyl]-3-yl)-N,N′-dimethylsulfuric diamide] | – | 91 | 0.0104 | –
CC(=O)Nc1cc(-c2ccc(F)cc2)cc(-n2cnc3cc(-c4cnn(CCC(C)(C)O)c4)ccc32)c1 [Example 220, N-(4′-fluoro-5-(5-(1-(3-hydroxy-3-methylbutyl)-1H-pyrazol-4-yl)-1H-benzo[d]-imidazol-1-yl)-[1,1′-biphenyl]-3-yl) acetamide] | – | 97 | 0.0034 | –
Cn1cc(-c2ccc3c(c2)ncn3-c2cc(NC(=O)Cn3cncn3)cc(-c3ccc(F)cc3F)c2)cn1 [Example 241, N-(2′,4′-difluoro-5-(5-(1-methyl-1H-pyrazol-4-yl)-1H-benzo[d]imidazol-1-yl)-[1,1′-biphenyl]-3-yl)-2-(1H-1,2,4-triazol-1-yl) acetamide] | – | – | 0.0029 | 97
Cn1cc(-c2cnc3c(c2)ncn3-c2cc(NS(=O)(=O)NC3CC3)cc(-c3ccc(F)cc3F)c2)cn1 [Example 244, N-cyclopropyl-N′-(2′,4′-difluoro-5-(6-(1-methyl-1H-pyrazol-4-yl)-3H-imidazo[4,5-b]pyridin-3-yl)-[1,1′-biphenyl]-3-yl)-sulfuric diamide] | – | 98 | 0.014 | –

Now from value to compound, other results behind:

inhibition at 1 µM (c-Met kinase) [%] | inhibition at 1 µM (FGFR1 kinase; 1000 nM compound) [%] | IC50 (FGFR1 kinase) [µM] | SMILES | Inhibition (%) of FGFR1 at 1000 nM (FGFR1 kinase; 1000 nM compound) [%]
– | 92 | 0.045 | O=C(CN1CCCCC1)Nc1cc(-c2ccc(F)cc2F)cc(-n2cnc3cc(-n4cccn4)ccc32)c1 [Example 259, N-(5-(5-(1H-pyrazol-1-yl)-1H-benzo[d]imidazol-1-yl)-2′,4′-difluoro-[1,1′-biphenyl]-3-yl)-2-(piperidin-1-yl)acetamide] | –
– | 80 | 0.09 | Cn1cc(-c2ccc3c(c2)ncn3-c2cc(Nc3ncccn3)cc(-c3ccc(F)cc3F)c2)cn1 [Example 280, N-(2′,4′-difluoro-5-(5-(1-methyl-1H-pyrazol-4-yl)-1H-benzo[d]imidazol-1-yl)-[1,1′-biphenyl]-3-yl)pyrimidin-2-amine] | –
– | 96 | 0.009 | Cn1cc(-c2ccc3c(c2)ncn3-c2cc(Nc3nccs3)cc(-c3ccc(F)cc3F)c2)cn1 [Example 281, N-(2′,4′-difluoro-5-(5-(1-methyl-1H-pyrazol-4-yl)-1H-benzo[d]imidazol-1-yl)-[1,1′-biphenyl]-3-yl) thiazol-2-amine] | –
– | 94 | 0.032 | O=c1ccc(-c2ccc3c(c2)ncn3-c2cc(NS(=O)(=O)C3CC3)cc(-c3ccc(F)cc3F)c2)c[nH]1 [Example 289, N-(2′,4′-difluoro-5-(5-(6-oxo-1,6-dihydropyridin-3-yl)-1H-benzo[d]imidazol-1-yl)-[1,1′-biphenyl]-3-yl)cyclopropanesulfonamide] | –
– | 99 | 0.0093 | CS(=O)(=O)Nc1cc(-c2ncccc2F)cc(-n2cnc3cc(-c4cnn(CCN5CCOCC5)c4)ccc32)c1 [Example 294, N-(3-(3-fluoropyridin-2-yl)-5-(5-(1-(2-morpholinoethyl)-1H-pyrazol-4-yl)-1H-benzo[d]imidazol-1-yl)phenyl)methane sulphonamide] | –
– | 97 | 0.018 | CN1CCC(C(=O)Nc2cc(-c3ccc(F)cc3F)cc(-n3cnc4cc(-c5cnn(C)c5)cnc43)c2)CC1 [Example 319, N-(2′,4′-difluoro-5-(6-(1-methyl-1H-pyrazol-4-yl)-3H-imidazo[4,5-b]pyridin-3-yl)-[1,1′-biphenyl]-3-yl)-1-methylpiperidine-4-carboxamide] | –
– | 92 | 0.0658 | O=S(=O)(Nc1cc(C2=CC=C(F)CC2F)cc(-n2cnc3cc(N4CCC(O)C4)ccc32)c1)C1CC1 (centres unmarked) [Example 322, N-(2′,4′-difluoro-5-(5-(3-hydroxypyrrolidin-1-yl)-1H-benzo[d]imidazol-1-yl)-2′,3′-dihydro-[1,1′-biphenyl]-3-yl)cyclopropanesulfonamide] | –
